Assay results as given in patent US5326764A, “Method for the treatment of hyperproliferative disorders” (Yale University, priority 1993, dated 1994).

Test system: human neonatal foreskin keratinocytes
Experiment: Keratinocyte growth by cell counting after seven days
Assay type: cell-based
Conditions: 168 h

SMILES	inhibition at 0.5 µM (read-out: inhibition of cell growth) [%]	inhibition at 0.1 µM (read-out: inhibition of growth of keratinocytes) [%]
O=c1[nH]cc(F)c(=O)[nH]1 [5-fluorouracil]	30	–
CN(Cc1cnc2nc(N)nc(N)c2n1)c1ccc(C(=O)N[C@@H](CCC(=O)O)C(=O)O)cc1 [methotrexate]	–	32
